Experimental data from patent US20230173082A1, “ANTIBACTERIAL PRODUCTS” (UNIVERSITY OF LINCOLN, priority 2014, published 2023).
Several values for one entry are separate records, joined by “and”; a condition that tells them apart may be missing. Equal entries are not always repeated. Where two headings read alike, the source gives them in different places.

What was measured:
E. Coli 25922 = experiment: MIC testing (MIC/MBC), broth dilution; format: cell-based; details: delivery agents with Moenomycin A at 1:2 ratio
Method: (§1) • The bacteria were grown in 5 ml of Mueller Hinton Broth overnight at 37° C. • The inhibitor was tested on its own or in conjunction with a cell penetrating peptide (CPP). • When tested with a CPP they were incubated together at room temperature for 1 hour before use. • Delivery agents (Compound 5, Compound 6, and 7) were used at a 1:2 ratio.

K. Pneumonia 700603 = experiment: MIC testing (MIC/MBC), broth dilution; format: cell-based; details: runs A, B, C, delivery agents with Moenomycin A at 1:2 ratio; for MIC: 24 hours at 37° C.
Method: as §1

B. Subtilis 2410 = experiment: MIC testing (MIC/MBC), broth dilution; format: cell-based; details: delivery agents with Moenomycin A at 1:2 ratio
Method: as §1

P. Aeruginosa 27853 = experiment: MIC testing (MIC/MBC), broth dilution; format: cell-based; details: runs A, B, C, delivery agents with Moenomycin A at 1:2 ratio; for MIC: 24 hours at 37° C.
Method: as §1

A. Baumannii 19606 = experiment: MIC testing (MIC/MBC), broth dilution; format: cell-based; details: runs A, B, C, delivery agents with Moenomycin A at 1:2 ratio; for MIC: 24 hours at 37° C.
Method: as §1

HeLa cells = experiment: In vitro toxicity testing in HeLa cells; format: cell-based
tumor cell line 786-O = experiment: In vitro cell viability in tumor cell line 786-O; format: cell-based; details: initial in vitro testing
mammalian cells [1] = tested on: mammalian cells
mammalian cells [2] = experiment: Mammalian cytotoxicity (cell type not stated)
[3] = Escherichia coli, read-out: MBC
[4] = Escherichia coli, read-out: MIC
[5] = Bacillus subtilis, read-out: MBC
[6] = Bacillus subtilis, read-out: MIC
[7] = Acinetobacter baumannii, read-out: MIC
[8] = Pseudomonas aeruginosa, read-out: MIC
[9] = Pseudomonas aeruginosa, read-out: MBC

| Structure (SMILES) | MBC (E. Coli 25922; [3]) [µg/mL] | MIC (E. Coli 25922; [4]) [µg/mL] | MIC (K. Pneumonia 700603) | MBC (K. Pneumonia 700603) | MBC (B. Subtilis 2410; [5]) [µg/mL] | MIC (B. Subtilis 2410; [6]) [µg/mL] | MIC (P. Aeruginosa 27853) | MBC (P. Aeruginosa 27853) | MIC (A. Baumannii 19606; [7]) [µg/mL] | MBC (A. Baumannii 19606) | MIC (P. Aeruginosa 27853; [8]) [µg/mL] | MBC (P. Aeruginosa 27853; [9]) [µg/mL] | MIC (A. Baumannii 19606) | other results |
| --- | --- | --- | --- | --- | --- | --- | --- | --- | --- | --- | --- | --- | --- | --- |
| CC1(C)S[C@@H]2[C@H](NC(=O)[C@H](N)c3ccccc3)C(=O)N2[C@H]1C(=O)O [Ampicillin, reference compound] | 8 | 8 | Growth in all wells | Growth in all wells | 256 | 128 | Growth in all wells | Growth in all wells | 128 | Growth in all wells |  |  |  |  |
| CCCCCCCCCCCCCCCCCC(=O)OC(COCC(COC(=O)NCCCN(C)CCCN)OC(=O)NCCCN(C)CCCN)COCC(COC(=O)NCCCN(C)CCCN)OC(=O)NCCCN(C)CCCN (centres unmarked) [Compound 5] | 128 | 64 | 64 µg/mL | 64 µg/mL | 32 | 32 |  |  |  |  | 256 | 256 |  | MIC (K. Pneumonia 700603; Klebsiella pneumoniae, 24 h, read-out: MIC): 128 µg/mL; MBC (K. Pneumonia 700603; Klebsiella pneumoniae, read-out: MBC): 128 µg/mL |
| CCCCCCCCCCCCCCCCCC(=O)OC(COC(COCC(COC(=O)NCCCN(C)CCCN)OC(=O)NCCCN(C)CCCN)COCC(COC(=O)NCCCN(C)CCCN)OC(=O)NCCCN(C)CCCN)COC(COCC(COC(=O)NCCCN(C)CCCN)OC(=O)NCCCN(C)CCCN)COCC(COC(=O)NCCCN(C)CCCN)OC(=O)NCCCN(C)CCCN (centres unmarked) [Compound 6] |  | 256 |  |  | 32 | 32 |  |  | 256 |  | 256 | 256 |  | concentration at which toxic (HeLa cells): 20000 ng/mL; MBC (A. Baumannii 19606; Acinetobacter baumannii, read-out: MBC): 256 µg/mL; effect on cell viability (tumor cell line 786-O): did not affect the cell viability |
| N=C(N)NCCNC(=O)CCN(CCC(=O)NCCNC(=N)N)CCN(CCC(=O)NCCNC(=N)N)CCC(=O)NCCNC(=N)N [Compound 7, 3,3’,3”,3”’-(Ethane-1,2-Divlbis(Azanetrivl)) Tetrakis(N-(2-Guanidinoethyl)Propanamide)] |  |  | Growth in all wells | Growth in all wells |  |  | Growth in all wells | Growth in all wells |  | Growth in all wells |  |  | Growth in all wells |  |
| C#CC(=O)N[C@@H](CCCNC(=N)N)C(=O)N[C@@H](CCCNC(=N)N)C(=O)N[C@@H](CCCNC(=N)N)C(=O)N[C@@H](CCCNC(=N)N)C(=O)N[C@@H](CCCNC(=N)N)C(=O)N[C@@H](CCCNC(=N)N)C(=O)N[C@@H](CCCNC(=N)N)C(=O)N[C@@H](CCCNC(=N)N)C(N)=O [Compound 8] |  |  |  |  |  |  |  |  |  |  |  |  |  | concentration up to which no toxicity was observed (mammalian cells [1]): up to 110 µg/mL |
| C=C(C/C=C(\C)CCC=C(C)C)CCC(C)(C)/C=C/CC/C(C)=C/CO[C@@H](COP(=O)(O)O[C@H]1O[C@H](C(N)=O)[C@@](C)(O)[C@H](OC(N)=O)[C@H]1O[C@@H]1O[C@H](CO[C@@H]2O[C@H](CO)[C@@H](O)[C@H](O)[C@H]2O)[C@@H](O[C@@H]2O[C@H](C)[C@@H](O[C@@H]3O[C@H](C(=O)NC4=C(O)CCC4=O)[C@H](O)[C@H](O)[C@H]3O)[C@H](O)[C@H]2NC(C)=O)[C@H](O)[C@H]1NC(C)=O)C(=O)O [Moenomycin A, reference compound] |  |  | 64 µg/mL | 128 µg/mL |  |  | 256 µg/mL | Growth in all wells |  | 8 µg/mL |  |  | 4 µg/mL and 8 µg/mL | concentration up to which no toxicity was observed (mammalian cells [2]): up to 10 mg/mL; MBC (E. Coli 25922): 128 µg/mL; MIC (E. Coli 25922): 32 µg/mL; MBC (B. Subtilis 2410): Growth in all wells; MIC (B. Subtilis 2410): 256 µg/mL |
